# Where a SMILES comes first, the peptide text is derived from it. [ ]: non-standard residue; d: D form. The star is where a group is joined. dNle = CCCC[C@@H](N)C(=O)O; Hexanoyl = CCCCCC(=O)*; Ahx = NCCCCCC(=O)O
# Legend:
# [1] = Stability of Dihexa in the blood (not shown); format: in vitro ADME
# Met = assay: Inhibition of HGF-dependent Met phosphorylation in HEK293 cells; format: cell-based, human; conditions: 10 min
# Experimental: HEK293 cells were seeded in 6 well tissue culture plates and grown to 95% confluency in DMEM containing 10% FBS. The cells were serum deprived for 24 h prior to the treatment to reduce the basal levels of phospho-Met. Following serum starvation, cocktails comprised of vehicle and HGF with/without 6-AH analogs were prepared and pre-incubated for 30 min at room temperature. The cocktail was then added to the cells for 10 min to stimulate the Met receptor and downstream proteins. Cells were harvested using RIPA lysis buffer (Millipore; Billerica, Mass.) fortified with phosphatase inhibitor cocktails 1 and 2 (Sigma-Aldrich; St. Louis, Mo.). The lysate was clarified by centrifugation at 15,000 nx g for 15 min, protein concentrations were determined using the BCA total protein assay (Pierce), and then appropriate volumes of the lysates were diluted with 2× reducing Laemmli buffer and heated for ten min at 95° C. Samples containing identical amounts of protein were resolved using SDS-PAGE (Criterion, BioRad Laboratories), transferred to nitrocellulose, and blocked in Tris-buffered saline (TBS) containing 5% milk for 1 h at room temperature. The phospho-Met antibody were added to the blocking buffer at a final concentration of 1:1000 and incubated at 4° C. overnight with gentle agitation. The membranes were then washed several times with water and TBS ([…], 0.05% Tween-20), a 1:5000 dilution of horseradish-peroxidase conjugated goat anti-rabbit antiserum was added, and the membranes further incubated for 1 h at room temperature. Proteins were visualized using the Supersignal West Pico Chemiluminescent Substrate system (Pierce, Fenton, Mo.) and molecular weights determined by comparison to protein ladders (BenchMark, Invitrogen, and Kaleidoscope, BioRad). Film images were digitized and analyzed using a UVP phosphoimager.
# MDCK cells [2] = assay: HGF-dependent MDCK cell proliferation (MTT); format: cell-based, canine; conditions: analog 10^−10M, 4 days
# Experimental: 5000 MDCK cells were seeded into the wells of a 96 well plates in 10% FBS DMEM. To induce cellular quiescence, the cells were serum deprived for 24 h prior to initiating the treatments. Following serum starvation, 10 ng/ml HGF alone and with various concentrations of 6-AH analogs or PBS vehicle were added to the media. The cells were allowed to grow under these conditions for 4 days with a daily addition of 6-AH analogs. On the fourth day, 1 mg/ml of […] (MTT, Sigma-Aldrich) prepared in PBS was added to the cells and incubated for 4 h. Dimethyl sulfoxide diluted in a 0.01M glycine buffer was added to solubilize the cell membranes and the absorbance of reduced MTT in the buffer was quantitated at 590 nm using a plate reader (Biotek Synergy 2, Winooski, Vt.). HGF-dependent proliferation was determined by subtracting the basal proliferation (in the absence of HGF) from total proliferation rates in groups containing HGF.
# MDCK cells [3] = assay: Inhibition of HGF-dependent scattering in MDCK cells; format: cell-based, canine; conditions: 20 ng/ml HGF, 48 h
# Experimental: (§1) MDCK cells were grown to 100% confluency on the coverslips in six-well plates and washed twice with PBS. The confluent coverslips were then aseptically transferred to new six well plates containing 900 μl serum free DMEM. Norleual, Hinge peptide, and/or HGF (20 ng/ml) were added to appropriate wells. Control wells received PBS vehicle. Plates were incubated at 37° C. with 5% CO2 for 48 hours. Media was removed and cells were fixed with methanol. Cells were stained with Diff-Quik Wright-Giemsa (Dade-Behring, Newark, Del.) and digital images were taken. Coverslips were removed with forceps and more digital images were captured. Pixel quantification of images was achieved using Image J and statistics were performed using Prism 5 and InStat v.3.05.
# as §1, with “h.” for “hours.”, “v.3.05 (GraphPad; San Diego, Calif.).” for “v.3.05.”
# [4] = system: B16-F10 murine melanoma cells; assay: B16-F10 melanoma lung colony formation; format: in vivo; conditions: daily IP 10 μg/kg/day and 100 μg/kg/day, 14 days, C57BL/6 mice
# Experimental: Six to eight month old C57BL/6 mice were injected with 400,000 B16-F10 cells in 200 μl PBS by tail vein injection and subsequently received daily intraperitoneal injections of either D-Nle-X-Cys-NH—(CH2)5—CONH2 (10 μg/kg and 100 μg/kg) or a PBS vehicle control. Two weeks later, mice were anesthetized and lungs were perfused with PBS and removed. Photos were taken and lungs were solubilized in 1% Triton x-100, 20 mM Tris, 0.15 M NaCl, 2 mM EDTA, and 0.02% sodium azide. Samples were disrupted by sonication (Mixonix, Farmingdale, N.Y.) and spun. The supernatant was transferred to a 96 well plate and melanin absorbance at 410 nm was measured using a plate reader.
# [5] = Blood stability studies (heparinized rat blood, 37° C.); format: in vitro ADME; conditions: heparinized whole blood, single phase exponential decay, read-out: stability t1/2 in blood
# Experimental: At the end of each incubation, 20 μL of Nle^1-AngIV (100 μg/mL) was added to each sample as an internal standard. […] All samples were centrifuged at 4° C., 2300×g for 5 min and the supernatants were transferred to clean tubes.
# Samples were then separated by HPLC on an Econosphere C18 (100 mm×2.1 mm) from Grace Davison Discovery Science (Deerfield, Ill.). […] The mobile phase consisted of HPLC water (Sigma St. Louis, Mo.) with 0.1% trifluoroacetic or 0.1% heptafluorobutyric acid (Sigma St. Louis, Mo.) and varying concentrations of ACN or methanol. Separation was carried out using a gradient method, at ambient temperature and a flow rate of 0.3 mL/min (see below for more information). Stability half-lives were determined assuming a normal single phase exponential decay using Prism 5 graphical/statistical program (GraphPad, San Diego, Calif.).
# [6] = rat, iv, 24 mg/kg
# Experimental: (§2) Male Sprague-Dawley rats (250+ g) were allowed food (Harlan Teklad rodent diet) and water ad libitum in our AAALAC certified animal facility. Rats were housed in temperature-controlled rooms with a 12 h light/dark cycle. The right jugular veins of the rats were catheterized with sterile polyurethane Hydrocoat™ catheters (Access Technologies, Skokie, Ill., USA) under ketamine (Fort Dodge Animal Health, Fort Dodge, Iowa, USA) and isoflurane (Vet One™, MWI, Meridian, Id., USA) anesthesia. The catheters were exteriorized through the dorsal skin. The catheters were flushed with heparinized saline before and after blood sample collection and filled with heparin-glycerol locking solution (6 mL glycerol, 3 mL saline, 0.5 mL gentamycin (100 mg/mL), 0.5 mL heparin (10,000 u/mL)) when not used for more than 8 h. The animals were allowed to recover from surgery for several days before use in any experiment, and were fasted overnight prior to the pharmacokinetic experiment.
# (§3) Catheterized rats were placed in metabolic cages prior to the start of the study and time zero blood samples were collected. […] After dosing, blood samples were collected as follows (times and blood volumes collected are listed in chronological order):
# (§4) After each blood sample was taken, the catheter was flushed with saline solution and a volume of saline equal to the volume of blood taken was injected (to maintain total blood volume).
# (§5) Upon collection into polypropylene microfuge tubes without heparin, blood samples were immediately centrifuged at 4° C., 2300×g for 5 min to remove any cells and clots and the serum transferred into clean microcentrifuge tubes. A volume of internal standard (Nle^1-AngIV, 100 μg/mL) equal to 0.1 times the sample serum volume was added. A volume of ice-cold acetonitrile equal to four times the sample serum volume was then added and the sample vortexed vigorously for 30 s. The supernatants were transferred to clean tubes, then held on ice until the end of the experiment, and stored at 4° C. afterward until further processing.
# (§6) All samples were evaporated to dryness in a Savant SpeedVac® concentrator. […] The samples were then transferred to HPLC autosampler vials and 100 μl was injected into the HPLC system a total of 2 times (2 HPLC/MS analyses) for each sample.
# (§7) Data collection and integration were achieved using Shimadzu LCMS solution software. The analytical column used was an Econosphere C18 (100 mm×2.1 mm) from Grace Davison Discovery Science (Deerfield, Ill., USA). The mobile phase consisted of HPLC grade methanol and water with 0.1% trifluoroacetic acid. Separation was carried out using a non-isocratic method (40%-50% methanol over 10 min) at ambient temperature and a flow rate of 0.3 mL/min. […] Data were normalized based on the recovery of the internal standard.
# (§8) Pharmacokinetic analysis was performed using data from individual rats. The mean and standard deviation (SD) were calculated for the group.
# in vivo = conditions: male, Sprague-Dawley, rat, iv, 24 mg/kg
# Experimental: as §2, §3, §4, §5, §6, §7, §8
Compound,stable in the blood [1],inhibition of HGF-dependent Met auto-phosphorylation (Met),inhibition of HGF-dependent MDCK cell proliferation (MDCK cells [2]),inhibition of HGF-dependent MDCK cell scattering (MDCK cells [3]),inhibition of B16-F10 melanoma lung colonization [4],inhibition of B16-F10 melanoma lung colonization ([4]; listed as D-Nle-Cys-Ile-(6)-amino-hexanoic amide),half-life [5],"t½ (in vivo elimination half-life) ([6]; male, Sprague-Dawley)",KE ([6]; in vivo),AUC(0-inf) (in vivo),Vd (in vivo),clearance (in vivo),half-life (in vivo)
"CCCCCC(=O)N[C@@H](Cc1ccc(O)cc1)C(=O)N[C@H](C(=O)NCCCCCC(N)=O)[C@@H](C)CC [Dihexa, N-hexanoic-Tyr-Ile-(6)-aminohexanoic amide] (Hexanoyl-Tyr-Ile-[Ahx]-NH2)",over 5 hours,,,,,,,,,,,,
CCCC[C@@H](N)C(=O)N[C@@H](CS)C(=O)N[C@H](C(=O)NCCCCCC(N)=O)[C@@H](C)CC [D-Nle-Cys-Ile-NH—(CH2)5—CONH2] (H-[dNle]CI[Ahx]-NH2),,able to block Met auto-phosphorylation,marked inhibitory activity,different from the HGF alone group but not different from the control group,radically prevented lung colonization,obvious reduction in melanoma colonies,,,,,,,
CCCC[C@@H](N)C(=O)N[C@@H](Cc1ccc(O)cc1)C(=O)N[C@H](C(=O)NCCCCCC(N)=O)[C@@H](C)CC (H-[dNle]YI[Ahx]-NH2),,able to block Met auto-phosphorylation,marked inhibitory activity,different from the HGF alone group but not different from the control group,,,1.33 h,16.867 ± 6.523 h,0.001 ± 0.0002 min⁻¹,11500 ng·h/mL,104 ± 65 L/kg,58.3 ± 15.6 mL/min/kg,16.9 h

# Source: US8598118B2, “Hepatocyte growth factor mimics as therapeutic agents” (Washington State University, priority 2011, dated 2013)
